Results on 21 compounds are retold here after US20210070747A1, “2(1H)-QUINOLINONE DERIVATIVE” (priority 2017, published 2021).

The target in one test is T1, E. coli DNA gyrase (Escherichia coli, UniProt P0AES6).
T1 construct: made in house; host or cells: E. coli BL21 (DE3)
As to the kind of experiment: Test for evaluating the activity of inhibiting E. coli DNA gyrase enzyme (Method 2, supercoiling, recombinant gyrA/gyrB complex). The class given is biochemical. The method, then:
The enzymatic activity of E. coli DNA gyrase was measured by a method comprising reacting DNA gyrase and its substrate, relaxed pBR322 (Inspiralis), in the presence of ATP and detecting the post-reaction supercoiled pBR322/relaxed pBR322 ratio with H19.
Specifically, to 1 ng/μL of relaxed pBR322, E. coli DNA gyrase enzyme (the gyrA or gyrB gene was incorporated into the pET15b plasmid and after expressing them in E. coli BL21 (DE3), purification was performed using a Ni-NTA column to form a complex at room temperature) was added at a final concentration of 0.135 nmol/mL and the mixture was incubated for 60 minutes at room temperature. This reaction was carried out in 20 mmol/L tris-HCl buffered solution (pH 8.0) comprising 0.5 mmol/L ATP, 0.005% bridge 35, 35 mmol/L ammonium acetate, 8 mmol/L magnesium chloride, 4.6% glycerol, and 1 mmol/L dithiothreitol. To the reaction mixture, H19 was added to bring the reaction to an end; thereafter, the supercoiled pBR322/relaxed pBR322 ratio was detected at excitation wavelength/emission wavelength=485 nm/535 nm. An inhibition curve was obtained by allowing the analyte compound to be present at varying concentrations during the reaction described above.

The test system of a further test is E. Coli ATCC 25922. As to the kind of experiment: Test for evaluating antibacterial activity (E. coli), broth microdilution MIC. The class given is cell-based. The following applies: Escherichia coli, ATCC25922; 35° C., 18 hours, cation-adjusted Mueller-Hinton medium. The method, then:
Minimum inhibitory concentration (MIC) was measured using the broth microdilution method described below in accordance with a modification of the standard method specified by CLSI (Clinical & Laboratory Standards Institute).
Bacterial cells under test were cultured overnight on a heart infusion agar medium, scraped off and suspended at a concentration equivalent to McFarland 0.5 turbidity; the suspension thus obtained was diluted 10 folds to give a liquid inoculum. The inoculum (0.005 mL) was inoculated on a cation-adjusted Mueller-Hinton medium containing the analyte compound and cultured at 35° C. for 18 hours. A minimum drug concentration at which no bacterial growth was macroscopically visible was designated MIC.

Test [1] relates to N. gonorrhoeae ATCC 49226. The test can be described thus: Test for evaluating antibacterial activity (N. gonorrhoeae), broth microdilution MIC. It counts as cell-based. The following applies: Neisseria gonorrhoeae, ATCC49226; 35° C., 24 hours, gonococcal broth. The method, then:
Minimum inhibitory concentration (MIC) was measured using the broth microdilution method described below in accordance with a modification of the method of Geers et al. (Antimicrob. Agents. Chemother. (1989), 33, 233-234).
After sterilization, BD. Difco supplement C was added to give a final concentration of 1%, whereby a gonococcal broth was prepared.
Bacterial cells under test were cultured overnight on a chocolate II agar medium, scraped off and suspended at a concentration equivalent to McFarland 0.5 turbidity; the suspension thus obtained was diluted 5 folds to give a liquid inoculum. The inoculum (0.005 mL) was inoculated on a gonococcal broth containing the analyte compound and cultured at 35° C. for 24 hours. A minimum drug concentration at which no bacterial growth was macroscopically visible was designated MIC.

Setting [2] is: Method 2, read-out: E. Coli Gyrase supercoiling IC50.

In brackets after ≈: the same amount, converted by molar mass. Where two headings read alike, the source gives them in different places. Bounds are passed on as bounds.

Turning to `CNc1cccc2cc(C(=O)Nc3cccc(C(=O)O)c3)c(=O)[nH]c12` [Example 1, 3-[[8-(Methylamino)-2-oxo-1,2-dihydroquinoline-3-carbonyl]amino]benzoic Acid], on E. coli DNA gyrase (setting [2]), the 50% inhibitory concentration (IC50) was found to be 0.0523 µM. Further, the MIC with E. Coli ATCC 25922 is over 64 µg/mL; in test [1] it was over 4 µg/mL.

As for `CNc1cccc2cc(C(=O)Nc3cccc(CC(=O)O)c3)c(=O)[nH]c12` [Example 4, (3-{[8-(methylamino)-2-oxo-1,2-dihydroquinoline-3-carboyl]amino}phenyl)acetic acid], on E. coli DNA gyrase (setting [2]), the 50% inhibitory concentration (IC50) was found to be 0.164 µM. In addition, the MIC was over 64 µg/mL with E. Coli ATCC 25922 and over 4 µg/mL in test [1].

As to `CNc1cccc2cc(C(=O)NCCc3nc(O)cc(O)n3)c(=O)[nH]c12` [Example 32, N-[2-(4,6-dihydroxy-pyrimidine-2-yl)ethyl]-8-(methylamino)-2-oxo-1,2-dihydroquinoline-3-carboxamide], the IC50 at E. coli DNA gyrase (setting [2]) was determined as 0.0253 µM. The values for the MIC (in the test on E. Coli ATCC 25922; in test [1]) were over 64 µg/mL and over 4 µg/mL, respectively.

Take `CNc1cccc2cc(C(=O)Nc3cnc(CO)nc3)c(=O)[nH]c12` [Example 37, N-[2-(hydroxymethyl)pyrimidine-5-yl]-8-(methylamino)-2-oxo-1,2-dihydroquinoline-3-carboxamide]: the IC50 at E. coli DNA gyrase (setting [2]) worked out at 0.00997 µM. In addition, the MIC is over 4 µg/mL against E. Coli ATCC 25922 and 1 µg/mL (≈ 3.07 µM) in test [1].

`CNc1cc(F)cc2cc(C(=O)NCCc3ccc(O)c(OC)c3)c(=O)[nH]c12` [Example 81, 6-fluoro-N-[2-(4-hydroxy-3-methoxyphenyl)ethyl]-8-(methylamino)-2-oxo-1,2-dihydroquinoline-3-carboxamide]: the IC50 on E. coli DNA gyrase (setting [2]) was determined as 0.11 µM. Also, the MIC in test [1] is over 1 µg/mL.

In the case of `CNc1cc(F)cc2cc(C(=O)Nc3ccc(C(=O)O)cc3CN(C)C3CCN(C)CC3)c(=O)[nH]c12.Cl` [Example 83, 4-{[6-fluoro-8-(methylamino)-2-oxo-1,2-dihydroquinoline-3-carbonyl]amino)-3-{[methyl(1-methylpiperidine-4-yl)amino]methyl} benzoic acid-hydrochloride], on E. coli DNA gyrase, the IC50 is 0.00109 µM. The MIC in the test on E. Coli ATCC 25922 is over 16 µg/mL; in test [1], over 4 µg/mL.

For the compound `CNc1cc(F)cc2cc(C(=O)Nc3cnccc3CO)c(=O)[nH]c12` [Example 91, 6-Fluoro-N-[4-(hydroxymethyl)pyridin-3-yl]-8-(methylamino)-2-oxo-1,2-dihydroquinoline-3-carboxamide], the IC50 on E. coli DNA gyrase (setting [2]) was determined as 0.0186 µM. In addition, the values for the MIC (against E. Coli ATCC 25922; in test [1]) were over 16 µg/mL and 1 µg/mL (≈ 2.92 µM), respectively.

Consider `CCc1cc(C(=O)O)ccc1NC(=O)c1cc2cc(F)cc(NC)c2[nH]c1=O` [Example 93, 3-ethyl-4-{[6-fluoro-8-(methylamino)-2-oxo-1,2-dihydraquinoline-3-carbonyl]amino} benzoic acid], for which the IC50 at E. coli DNA gyrase (setting [2]) was 0.0318 µM. Besides, the values for the MIC (with E. Coli ATCC 25922; in test [1]) were over 2 µg/mL and 0.25 µg/mL (≈ 0.652 µM), respectively.

Take `CNc1cc(F)cc2cc(C(=O)Nc3cnccc3CN(C)C3CCCCC3)c(=O)[nH]c12` [Example 95, N-(4-{[cyclohexyl(methyl)amino]methyl}pyridine-3-yl)-6-fluoro-8-(methylamino)-2-oxo-1,2-dihydroquinoline-3-carboxamide]: the 50% inhibitory concentration (IC50) on E. coli DNA gyrase amounted to 0.00216 µM. Further, the MIC is over 16 µg/mL against E. Coli ATCC 25922 and 1 µg/mL (≈ 2.29 µM) in test [1].

For the compound `CNc1cc(F)cc2cc(C(=O)Nc3c(C)cc(C(=O)O)cc3CN(C)C3CCCCC3)c(=O)[nH]c12` [Example 99, 3-{[cyclohexyl (methyl)amino]methyl}-4-{[6-fluoro-8-(methylamino)-2-oxo-1,2-dihydroquinoline-3-carbonyl]amino}-5-methylbenzoic acid], the IC50 on E. coli DNA gyrase (setting [2]) amounted to 0.0007 µM. Also, the MIC against E. Coli ATCC 25922 was determined as 64 µg/mL (≈ 129 µM); in test [1], 0.25 µg/mL (≈ 0.505 µM).

For `CNc1cc(F)cc2nc(C(=O)Nc3ccc(C(=O)O)cc3CN(C)C3CCCCC3)c(=O)[nH]c12` [Example 100, 3-[[Cyclohexyl(methyl)amino]methyl]-4-[[7-fluoro-5-(methylamino)-3-oxo-3,4-dihydroquinoxaline-2-carbonyl]amino]benzoic Acid], the IC50 on E. coli DNA gyrase (setting [2]) was 0.0337 µM. For the same compound, the MIC against E. Coli ATCC 25922 was over 64 µg/mL; in test [1], over 1 µg/mL.

Take `CNc1cc(F)cc2cc(C(=O)Nc3ccccc3CN(CC(=O)O)C3CCCCC3)c(=O)[nH]c12` [Example 103, N-cyclohexyl-N-[(2-{[6-fluoro-8-(methylamino)-2-oxo-1,2-dihydroquinoline-3-carbonyl]amino}phenyl)methyl]glycine]: the IC50 at E. coli DNA gyrase was 0.0121 µM. The MIC was over 64 µg/mL with E. Coli ATCC 25922 and 4 µg/mL (≈ 8.32 µM) in test [1].

With `CCCCCCCCN(CCCCCCCC)Cc1cc(C(=O)O)ccc1NC(=O)c1cc2cc(F)cc(NC)c2[nH]c1=O` [Example 106, 3-[(dioctylamino)methyl]-4-{[6-fluoro-8-(methylamino)-2-oxo-1,2-dihydroquinoline-3-carbonyl]amino} benzoic acid], the IC50 on E. coli DNA gyrase (setting [2]) turned out to be 0.00698 µM. The values for the MIC (against E. Coli ATCC 25922; in test [1]) were over 8 µg/mL and 0.5 µg/mL (≈ 0.821 µM), respectively.

For the compound `CNc1cncc2cc(C(=O)Nc3ccc(C(=O)O)cc3CN(C)C3CCCCC3)c(=O)[nH]c12` [Example 108, 3-[[Cyclohexyl(methyl)amino]methyl]-4-[[8-(methylamino)-2-oxo-1,2-dihydro-1,6-naphthyridine-3-carbonyl]amino]benzoic Acid], the IC50 at E. coli DNA gyrase (setting [2]) was 0.00605 µM. Moreover, the MIC against E. Coli ATCC 25922 is over 32 µg/mL; in test [1], over 1 µg/mL.

As for `CNc1cc(F)cc2cc(C(=O)Nc3ccc(C(=O)O)cc3CN(CCN)C3CCCCC3)c(=O)[nH]c12.O=C(O)C(F)(F)F` [Example 110, 3-{[(2-aminoethyl)(cyclohexyl)amino]methyl}-4-{[6-fluoro-8-(methylamino)-2-oxo-1,2-dihydroquinoline-3-carbonyl]amino}benzoic acid-trifluoroacetate], the IC50 on E. coli DNA gyrase is 0.00368 µM. The values for the MIC (against E. Coli ATCC 25922; in test [1]) were over 64 µg/mL and over 1 µg/mL, respectively.

For `CNc1cc(F)cc2cc(C(=O)N[C@H]3CC[C@H](C(=O)O)CC3)c(=O)[nH]c12` [Example 116, trans-4-{[6-fluoro-8-(methylamino)-2-oxo-1,2-dihydroquinoline-3-carbonyl]amino} cyclohexane-1-carboxylic acid], the IC50 on E. coli DNA gyrase turned out to be 0.137 µM. Further, the figures for the MIC (in the test on E. Coli ATCC 25922; in test [1]) were over 64 µg/mL and over 1 µg/mL, respectively.

Consider `CNc1cc(F)cc2c(OC)c(C(=O)Nc3ccc(C(=O)O)cc3)c(=O)[nH]c12` [Example 118, 4-[[6-Fluoro-4-methoxy-8-(methylamino)-2-oxo-1,2-dihydroquinoline-3-carbonyl]amino]benzoic Acid], for which the inhibition at 0.1 µM on E. coli DNA gyrase (Method 2, at 100 nM) was determined as 45%. For the same compound, the MIC in the test with E. Coli ATCC 25922 was over 64 µg/mL; in test [1], 1 µg/mL (≈ 2.6 µM).

As for `CNc1cc(F)cc2cc(C(=O)Nc3ccc(C(N)=O)cc3CN(C)C3CCCCC3)c(=O)[nH]c12` [Example 121, N-(4-carbamoyl-2-{[cyclohexyl(methyl)amino]methyl}phenyl)-6-fluoro-8-(methylamino)-2-oxo-1,2-dihydroquinoline-3-carboxamide], the IC50 at E. coli DNA gyrase (setting [2]) is 0.00248 µM. The MIC was over 32 µg/mL against E. Coli ATCC 25922 and 0.25 µg/mL (≈ 0.521 µM) in test [1].

Regarding `CNc1cc(F)cc2cc(C(=O)Nc3ccc(CO)cc3CN(C)C3CCCCC3)c(=O)[nH]c12` [Example 122, N-[2-{[cyclohexyl(methyl)amino]methyl}-4-(hydroxymethyl)phenyl]-6-fluoro-8-(methylamino)-2-oxo-1,2-dihydroquinoline-3-carboxamide], the IC50 on E. coli DNA gyrase (setting [2]) is 0.00192 µM. Moreover, the MIC in the test on E. Coli ATCC 25922 was determined as 16 µg/mL (≈ 34.3 µM); in test [1] it was 0.5 µg/mL (≈ 1.07 µM).

Regarding `CNc1cc(F)cc2c(O)c(C(=O)Nc3ccccc3)c(=O)[nH]c12` [Example 129, 6-fluoro-4-hydroxy-8-(methylamino)-2-oxo-N-phenyl-1,2-dihydroquinoline-3-carboxamide], on E. coli DNA gyrase (setting [2]), the IC50 was determined as 0.387 µM. Besides, the values for the MIC (against E. Coli ATCC 25922; in test [1]) were over 16 µg/mL and 1 µg/mL (≈ 3.06 µM), respectively.

For the compound `CNc1cc(F)cc2c(NCCCN)c(C(=O)Nc3ccc(C(=O)O)cc3)c(=O)[nH]c12.O=CO` [Example 132, 4-({4-[(3-aminopropyl)amino]-6-fluoro-8-(methylamino)-2-oxo-1,2-dihydroquinoline-3-carbonyl}amino)benzoic acid-formate], the IC50 on E. coli DNA gyrase is 0.00052 µM. In addition, the MIC was over 8 µg/mL against E. Coli ATCC 25922 and 0.25 µg/mL in test [1].
